This is an account of results in US20220281970A1, “Pharmaceutical Combinations” (Novartis AG, priority 2018, published 2022).

In brackets after ≈: the same amount, converted by molar mass.

A short description of data set [1]: Population PK model parameter estimates (NLME, Monolix) from CHDM201X2101 dataset. It counts as in vivo, human. The conditions noted are these: population estimate. The text has this: (§1) For model building the PK/PD dataset of CHDM201X2101 were used and an NLME estimation (Monolix 4.3.2) performed. The model structure and the parameter estimates are provided below. This provided inputs for R/shiny. The mlxR package were used for simulation of longitudinal data from the MLXTRAN model.
parameter={r, t1, t2, Tk0, ka, V, Cl, PLTz, MMTP, T12P, sPW, alp, lPW, kr1, kr1D, EC50, ke0, cfr, h, Sg, HGD, koutg, gdfZ, kinG}

Another data set has as its system Colon 26 cells. Nature of the data set: Colon 26 Colorectal Cancer (CRC) syngeneic mouse model. It counts as in vivo. How it is done: Balb/c mice were implanted with 2×10^5 Colon 26 cells subcutaneously. Mice were treated with HDM201 at 40 mg/kg×3 every 3 h po on Days 10, 17 and 24 post cell implant, and anti-Tim3 antibody (murine cross reactive clone 5D12) at 5 mg/kg ip on days 10, 13, 17, and 20. End-point was defined as tumor volume equal or greater than 1000 mm^3.
The anti-tumor effects of HDM201 as a monotherapy or in combination with an anti-TIM3 antibody were evaluated in the Colon 26 Colorectal Cancer (CRC) syngeneic mouse model.

A further data set has as its system hematological tumors. Nature of the data set: Clinical study CHDM201X2101, HDM201 single agent. It counts as in vivo, human. As for the experimental part:
With this regimen, the RD has been determined as 45 mg HDM201 in hematological tumors in the CHDM201X2101 study. […] Proceedings of the American Association for Cancer Research Annual Meeting 2017; 2017 Apr. 1-5; Washington, D.C. Philadelphia (Pa.): AACR; Cancer Res 2017; 77 (13 Suppl): Abstract nr CT154. doi:10.1158/1538-7445.AM2017-CT154).
The starting dose and regimen selection for HDM201 in dose escalation is based on the previous Phase I dose escalation and expansion study of HDM201 as a single-agent in subjects with AML/MDS (CHDM201X2101) in which a dose of 45 mg/day (day 1-7/28-day cycle) was determined to be the RD. In this study, a starting dose and regimen of 20 mg/day HDM201 (day 1-5/28-day cycle) for dose escalation has been selected. The selection of dose and regimen was supported by single agent translational preclinical modeling of tumor bearing rats and population PK/PD modeling of thrombocytopenia and bone marrow blast data from CHDM201X2101 study in AML/MDS subjects. The starting dose corresponds to ˜[…] below the cumulative dose of HDM201 single agent RD (as evaluated in CHDM201X2101 at 45 mg/day (day 1-7/28-day cycle), or 315 mg/cycle). At this dose level, ˜15% of subjects are predicted to achieve preclinical derived average target efficacious concentrations of HDM201 per cycle, with some anticipated clinical activity (bone marrow blast reduction) and limited target myelosuppression.

Another data set deals with platelet (PLT). Nature of the data set: Population PK/PD platelet model parameter estimates (NLME, Monolix) from CHDM201X2101 dataset. It counts as in vivo, human. The note with it: population estimate.
Text: Based on the population PK/PD data of the clinical study CHDM201X2101, an AML patients platelet model was developed which recognizes that the disease influences the regulation of platelets production. The following graphic elucidates the model.
as §1
EP1=kr1*E^h/(E^h+EC50^h)+kr1D*Cc

A short description of data set [2]: Clinical study CMBG453X2101, MBG453 single agent in solid tumor subjects. Format: in vivo, human. The note with it: Q4W, based on PK and PKPD modeling of TIM-3 occupancy. How it is done:
(§2) The MBG453 single agent RD has been determined as 800 mg Q4W in solid tumor subjects primarily based on PK and PKPD modeling of target (TIM-3) occupancy. MBG453 at the dose level of 800 mg Q4W was predicted to give sustained target occupancy of 90% in tumor in >90% of subjects. […] MBG453 single agent is also being evaluated in AML/MDS subjects in the CPDR001X2105 study with Q4W and Q2W regimens.

Data set [3] is described as follows: Clinical study CPDR001X2105, MBG453 in AML/MDS subjects. The note with it: 400 mg Q2W and 800 mg Q4W. Format: in vivo, human. As for the experimental part: as §2
The RD in AML/MDS has not yet been determined, however it is not expected to be different from solid tumors, based on preliminary PK and safety data.

Where [4] appears, read: Balb/c mice, Colon 26 sc, HDM201 40 mg/kg x3 every 3 h po days 10, 17, 24, anti-Tim3 antibody 5 mg/kg ip days 10, 13, 17, 20.
Setting [5] is: learning from clinical study CHDM201X2101.

Take `COc1ncc(-c2nc3c(n2C(C)C)[C@H](c2ccc(Cl)cc2)N(c2cc(Cl)cn(C)c2=O)C3=O)c(OC)n1` [HDM201, (S)-5-(5-Chloro-1-methyl-2-oxo-1,2-dihydro-pyridin-3-yl)-6-(4-chloro-phenyl)-2-(2,4-dimethoxy-pyrimidin-5-yl)-1-isopropyl-5,6-dihydro-1H-pyrrolo[3,4-d]imidazol-4-one]: in data set [1], the pop_Tk0 was 1.314. In data set [1] (method=FIXED), the pop_Cl is on record as 6.18, the pop_V was 119 and the pop_ka is given as 0.489. Also, the pop_t1 in data set [1] (method=FIXED, absorption lag (Tlag=t1)) is listed as 0.69. In data set [1] (method=FIXED, absorption lag (Tlag=t2)), the pop_t2 is given as 0.412. Further, the pop_r in data set [1] (method=FIXED, fraction for zero-order absorption) is on record as 0.617. Moreover, in the data set on Colon 26 cells (setting [4]), the “anti-tumor effects (tumor growth)” value is on record as “inhibited tumor growth” and the “complete tumor regressions (CR)” value was 1 CR. Moreover, the “anti-tumor immune memory / resistance to re-challenge” value in the data set on Colon 26 cells (mice with CR or long-term survival, Colon 26 cells) is “develop antitumor immunity and are resistant to re-challenge with the same tumor cells”. Also, in the data set with hematological tumors (day 1-7/28-day cycle, single-agent, subjects with AML/MDS), the “RD (recommended dose)” value was determined as 45 mg/day. In the data set with hematological tumors (setting [5]), the “hematopoietic recovery on dosing in AML” value is listed as “Delayed hematopoietic recovery” and the “platelet toxicity on dosing in AML” value is “Cumulative platelet toxicity”. In the data set with hematological tumors (once daily day 1 to day 7 of a 28-day cycle, hematological tumors), the “RD (recommended dose)” value is 45 mg. The EC50 in the data set with platelet (PLT) (Homo sapiens, drug effect EP1 on platelet production, read-out: pop_EC50) was 0.261 µg/mL (≈ 0.469 µM). In the data set on platelet (PLT) (method=FIXED, exponent h in EP1), the pop_h is recorded as 2. In addition, the pop_kr1D with platelet (PLT) (concentration-proportional term of EP1) is listed as 0.006491. For the same compound, in the data set with platelet (PLT) (effect compartment), the pop_ke0 is recorded as 6.152e-05. In addition, the pop_kr1 in the data set on platelet (PLT) (maximal term of drug effect EP1) was 2.1374.

As to “MBG453: high-affinity, humanized anti-TIM-3 IgG4 monoclonal antibody which blocks the binding of TIM-3 to phosphatidylserin (PtdSer)”, the “single agent RD (recommended dose)” value in data set [2] worked out at 800 mg. Also, in data set [3], the “tolerability in AML/MDS” value was “well tolerated”.
